Measured values as given in paper PMC6447718, “PACAP-38 and PACAP(6–38) Degranulate Rat Meningeal Mast Cells via the Orphan MrgB3-Receptor” (Frontiers in Cellular Neuroscience, 2019).
Entries after “also recorded” stand apart in the source; their conditions may differ. Read-outs that look alike come from different tables or passages of the source.

Columns and labels:
[1] = test system: PAC1-receptor (Rattus Norvegicus Adcyap1r1 variant 5, null-splice variant); assay type: cell-based
Excerpt: (§1) DNA of the coding region of Rattus Norvegicus Adcyap1r1 variant 5 (NM_001270582.1) encoding the null-splice variant (short N-terminal and neither exon 14 or 15) of the PAC1-receptor (Vector: EX-Rn10199-M03) was ordered from GeneCopoeia. DNA encoding the RGD1560730 gene (XM_006229262.3, GenScript), was cloned into the pXOOM vector as previously described (Jespersen et al., [2002]). DNA was purified using Plasmid DNA Purification NucleoBond Xtra Midi-kit (Macherey-Nagel). […] Extracted plasmids were linearized down-stream the poly(A) segment using the XhoI restriction enzyme (New England Biolabs, Ipswich, MA, USA). RNA was in vitro transcribed by synthetization from the T7 RNA polymerase promoter using the mMessenger mMachine kit (Ambion) according to manufacturer’s protocol. Messenger RNA was purified using the MEGAclear kit (Ambion). Transcribed RNA integrity was assessed by agarose gel electrophoresis.
(§2) Stage V and VI defolliculated Xenopus laevis oocytes were purchased from EcoCyte Bioscience (Dortmund, Germany) and kept in Kulori medium (90 mM NaCl, 4 mM KCl, 1 mM MgCl2, 1 mM CaCl2, and 5 mM Hepes, pH 7.4). Oocytes were micro-injected with 50 nl mRNA solution containing 30 ng RNA per oocyte and incubated at 19°C. Currents were measured after 2–5 days using a conventional two-electrode-voltage clamp (TEVC). The oocytes were placed in a 200 μl chamber and continuously exposed to a flow of Kulori medium with or without ligands (1 ml/min) while impaled with both a current and a voltage electrode filled with 3 M KCl and connected to an Oocyte Clamp Amplifier [Warner Instruments Corp. (OC-725 B) and a PC-interface (Digidata1440A, Molecular Devices)]. Current amplitude in absence or presence of ligands were analyzed using pClamp 10.2 software (Molecular Devices). All experiments were performed with oocyte membrane voltages constantly clamped to −70 mV and the temperature was kept between 19 and 22°C. In activation experiments, non-responding as well as low-responding (<10 nA) oocytes were excluded from the dataset. Ligands PACAP-38, PACAP-27, PACAP(6–38) were custom synthetized by Caslo (Lyngby, Denmark) while maxadilan was purchased from Bachem (Bubendorf, Switzerland).
(§3) Concentration-response curves for both oocytes and dural mast cells were analyzed for overall effects of PACAP-38 and -27 by two-way analyses of variance (ANOVA) followed by Sidak’s test for multiple pairwise comparisons. Effects of PAC1-receptor ligands on mast cell degranulation or on receptor-expressing oocytes were analyzed with a one-way ANOVA followed by Tukey’s multiple comparisons test. The effect of PACAP-38 and PACAP(6–38) on MrgB3-expressing oocytes were analyzed by an unpaired two-tailed t-test. Differences between groups were considered significant when p < 0.05 and data are presented as mean with standard error of the mean (±SEM). GraphPad Prism 7 (GraphPad Prism Software, San Diego, CA, USA) was used for statistical analysis.

[2] = test system: rat peritoneal mast cells; settings: ref Baun et al., 2012, cited from earlier work; for peritoneal mast cell degranulation (result in words): rat peritoneal mast cells
Excerpt: Inspired by clinical findings, we have previously characterized the degranulating effect of various PACAP-analogues on isolated rat peritoneal mast cells. Based on the expectation that degranulation is mediated through the PAC1-receptor, we found an unpredicted order of potency (Baun et al., [2012]).

VPAC2-receptor = test system: VPAC2-receptor; design: method as in Harmar et al., 2012; settings: PACAP-38, PACAP-27 and VIP compared; ref Harmar et al., 2012; cited from earlier work
rat meningeal mast cells = assay: Mast cell degranulation in hemi-skull preparations (dura mater, toluidine blue staining, microscopic count); assay type: cell-based, rat (male Sprague-Dawley); settings: for degranulated meningeal mast cells in % of total number of mast cells: 30 s incubation, mean ± SEM; for mast cell degranulation: Figure 4A, PACAP-27 n = 6, maxadilan n = 5, mean ± SEM; for mast cell degranulation (result in words): 0.1 to 10 μM, rat meningeal mast cells
Experimental: Mast cell degranulation was performed as previously described (Pedersen et al., [2015]). In brief, skulls were cut mid-sagittal and the brain halves were removed, leaving the dura mater undisturbed. This was followed by immediate addition of either 350 μl 0.1, 1 or 10 μM PACAP-38 (custom synthesis by Caslo Laboratory ApS, Lyngby, Denmark) or vehicle (saline) in phosphate buffered saline (PBS). After 30 s incubation, the reactions were terminated, and the skulls were fixated in 4% paraformaldehyde in phosphate buffered saline (PBS; Glostrup Hospital Pharmacy, Denmark). The dura mater was dissected from the skull, whole mounted on slides, and mast cells were visualized by staining with 0.1% acidified toluidine blue (Sigma Aldrich, Germany). Tissues were dehydrated in graded alcohols prior to cover slip mounting. The level of mast cell degranulation was evaluated by 400× magnification (Nikon Eclipse Ni microscope) by a researcher blinded to the treatment and was counted in 10 consecutive fields along the stem part of the middle meningeal artery. Mast cells were considered degranulated if an extensive dispersion of more than 10 extruded granules were localized outside the cell or if an extensive loss of staining gave the cell a “ghostly” look.
as §3

[3] = test system: calcitonin gene-related peptide (CGRP) release from the trigeminal nucleus caudalis; settings: ref Jansen-Olesen et al., 2014; cited from earlier work
Excerpt: Future studies will have to rule out if MrgB3-receptors are involved in PACAP- ...

PAC1-receptor = settings: presence of 21-amino acid domain in extracellular N-terminal domain (PAC1-full, short); ref Pantaloni et al., 1996; cited from earlier work
Excerpt: Pituitary adenylate cyclase-activating peptide-38 (PACAP-38) is a 38-amino acid neuropeptide located in both sensory and parasympathetic perivascular nerve fibers (Moller et al., [1993]; Mulder et al., [1994]). A C-terminal truncated 27-amino acid (PACAP-27) version is endogenously present as well but is less abundant (Miyata et al., [1990]; Arimura et al., [1991]; Ogi et al., [1993]). […] At present, three PACAP-receptors have been identified: PA ... || Several different splice variants of the PAC1-receptor have been identified in rats. Splice sites in the extracellular N-terminal domain and the third intracellular loop account for fine tuning of ligand affinity and signal transduction through adenylate cyclase or PLC activation (Deutsch and Sun, [1992]; Spengler et al., [1993]).

VPAC1-receptor = test system: VPAC1-receptor; design: method as in Harmar et al., 2012; settings: PACAP-38, PACAP-27 and VIP compared; ref Harmar et al., 2012; cited from earlier work
[4] = test system: MrgB3-receptor (RGD1560730); assay: Two-electrode voltage clamp on MrgB3-receptor-expressing Xenopus laevis oocytes; assay type: cell-based, rat; settings: for activation of MrgB3-receptor (result in words): 1–10 μM, holding potential −70 mV
Excerpt: as §1, §2, §3

un-injected oocytes = assay: Two-electrode voltage clamp on un-injected Xenopus laevis oocytes (control); assay type: cell-based; settings: for delayed long-lasting response in un-injected oocytes: 10 μM; for currents in un-injected oocytes (result in words): same concentrations as in receptor-expressing oocytes (0.1–3 μM; maxadilan up to 10 μM), data not shown
Experimental: as §2

migraine patients = settings: ref Schytz et al., 2009, cited from earlier work
Excerpt: Pituitary adenylate cyclase-activating peptide-38 (PACAP-38) is a 38-amino acid neuropeptide located in both sensory and parasympathetic perivascular nerve fibers (Moller et al., [1993]; Mulder et al., [1994]). A C-terminal truncated 27-amino acid (PACAP-27) version is endogenously present as well but is less abundant (Miyata et al., [1990]; Arimura et al., [1991]; Ogi et al., [1993]). […] Degranulation of mast cells can be induced either by an allergen-IgE-dependent mechanism or via an IgE-independent mechanism. The latter mechanism can be activated by a group of molecules known as basic secretagogues.

[5] = 10.0 μM, n = 6, **** p < 0.0001 for PACAP-38 (two-way ANOVA, Sidak's test)

Row | Compound | activation of PAC1-receptor / relative potency (result in words) [1] | peritoneal mast cell degranulation (result in words) [2] | profile on VPAC2-receptor (result in words) (VPAC2-receptor) | degranulated meningeal mast cells in % of total number of mast cells (rat meningeal mast cells; 0.1 μM, n = 5) [% degranulation] | degranulated meningeal mast cells in % of total number of mast cells (rat meningeal mast cells; 1.0 μM, n = 6) [% degranulation] | degranulated meningeal mast cells in % of total number of mast cells (rat meningeal mast cells; [5]) | mast cell degranulation (rat meningeal mast cells; 10 μM, 30 s) [%] | mast cell degranulation (result in words) (rat meningeal mast cells; 30 s) | release of CGRP from the trigeminal nucleus caudalis (result in words) [3] | effect of 21-amino acid N-terminal domain of PAC1 on binding (result in words) (PAC1-receptor) | profile on VPAC1-receptor (result in words) (VPAC1-receptor) | activation of MrgB3-receptor (result in words) [4] | delayed long-lasting response in un-injected oocytes (un-injected oocytes) | currents in un-injected oocytes (result in words) (un-injected oocytes) | increase in mast cell degranulation (rat meningeal mast cells; 10 μM, 30 s, p < 0.0001) | migraine attacks / headache after infusion (result in words) (migraine patients; PACAP-38: 20-min intravenous infusion) | adverse events after infusion (result in words) (migraine patients; infusion, terminated by antihistamine treatment) | activation of PAC1-receptor / relative potency (result in words) ([1]; 0.01 to 1 μM, holding potential −70 mV) | current ([4]; up to 10 μM, −70 mV, Figure 4C, n = 9, mean ± SEM) [μA] | effect of inhibitor on PACAP-38-induced degranulation (result in words) [2]
1 | Pituitary Adenylate Cyclase Activating Peptide-27 [PACAP-27] | equipotent; also recorded: significant increase in membrane current; also recorded: activates the PAC1-receptor with apparently equal potencies | not PACAP-27 and VIP, caused degranulation; also recorded: weak degranulating effect | equipotent | 7.1 ± 3.2 | 16.9 ± 5.5 | 12.1 ± 3.8 % degranulation | 12 ± 4 | did not induce mast cell degranulation that was significantly different from saline treatment; also recorded: unresponsive | neither VIP, PACAP-27 nor maxadilan, mediated the release | impairs PACAP-27 binding | equipotent | not significantly different from baseline; also recorded: no change; also recorded: not PACAP-27 and maxadilan induces currents | not PACAP-27 | Currents were not observed |  |  |  |  |  | 
2 | pituitary adenylate cyclase activating peptide-38 [PACAP-38] | equipotent; also recorded: significant increase in membrane current; also recorded: activates the PAC1-receptor with apparently equal potencies | caused degranulation; also recorded: strong degranulation effect; also recorded: almost total mast cell degranulation within the first 10–20 s after application | equipotent | 12.4 ± 3.8 | 17.9 ± 3.7 | 48.4 ± 6.2**** % degranulation |  | more potent mast cell degranulating agent than Pituitary Adenylate Cyclase Activating Peptide-27 (PACAP-27) in the meninges; also recorded: significant mast cell degranulation only was observed after stimulation with PACAP-38; also recorded: strong degranulation of meningeal mast cells | mediated the release |  | equipotent | only PACAP-38 induces a significant change in current; also recorded: rapid concentration-depended inward current; also recorded: caused a change in current; also recorded: induces currents | 15 out of 19 | Currents were not observed | eight-fold increase | provokes migraine attacks in migraine patients as well as headache in non-migraineurs | all participants in the clinical provocation studies experienced long-lasting flushing; also recorded: heat sensation and long-lasting flushing |  |  | 
3 | maxadilan |  | no effect on mast cell degranulation; also recorded: ineffective |  |  |  |  | 5 ± 2 | unresponsive | neither VIP, PACAP-27 nor maxadilan, mediated the release |  |  | does not activate MrgB3-receptors; also recorded: no change; also recorded: not PACAP-27 and maxadilan induces currents |  | Currents were not observed |  |  |  | activates the PAC1-receptor with apparently equal potencies; also recorded: equipotent | −0.03 ± 0 | 
4 | COc1ccc2c(c1)CC[C@@H]1[C@@H]2CC[C@]2(C)[C@@H](NCCCCCCN3C(=O)C=CC3=O)CC[C@@H]12 [U-73122] |  |  |  |  |  |  |  |  |  |  |  |  |  |  |  |  |  |  |  | impaired
5 | Nc1ncnc2c1ncn2C1CCCO1 (stereo not drawn) [SQ22536] |  |  |  |  |  |  |  |  |  |  |  |  |  |  |  |  |  |  |  | ineffective
